Test [1] is described as follows: Antiproliferative activity against human MDA-MB-231 cells after 96 hrs by SRB assay. The test is classed as functional, cell-based. The note with it: MDA-MB-231, 96 h. (The SRB assay estimates cell density from bound dye.)
Test [2] in a line: Antiproliferative activity against human MCF7 cells after 96 hrs by SRB assay. The test is classed as functional, cell-based. The note with it: MCF7, 96 h.
Test [3] can be described thus: Antiproliferative activity against human T47D cells after 96 hrs by SRB assay. The test is classed as functional, cell-based.
A short description of test [4]: Antiproliferative activity against human PC3 cells after 96 hrs by SRB assay. The test is classed as functional, cell-based. The note with it: PC-3, 96 h.
The nature of test [5]: Antiproliferative activity against human DU145 cells after 96 hrs by SRB assay. Format: functional, cell-based. The note with it: DU-145, 96 h.
Test [6] can be described thus: Antiproliferative activity against human HCT116 cells after 96 hrs by SRB assay. Format: functional, cell-based. The note with it: HCT-116, 96 h.
Test [7] can be described thus: Antiproliferative activity against human HT-29 cells after 96 hrs by SRB assay. Format: functional, cell-based. The note with it: HT-29, 96 h.
A short description of test [8]: Antiproliferative activity against human HL60 cells after 96 hrs by SRB assay. The test is classed as functional, cell-based. The note with it: HL-60, 96 h.
Test [9] in a line: Antiproliferative activity against HAF cells after 96 hrs by SRB assay. The note with it: Homo sapiens. The test is classed as cell-based.
Test [10] is described as follows: Selectivity index, ratio of IC50 for HAF cells to IC50 for human MDA-MB-231 cells. The test is classed as functional.
A further test concerns MCF7. Put plainly: Selectivity index, ratio of IC50 for HAF cells to IC50 for human MCF7 cells. The test is classed as functional.
In the next test the test system is T47D. Briefly: Selectivity index, ratio of IC50 for HAF cells to IC50 for human T47D cells. Format: functional.
The subject of another test is PC-3. Briefly: Selectivity index, ratio of IC50 for HAF cells to IC50 for human PC3 cells. Format: functional.
The next test relates to DU-145. Briefly: Selectivity index, ratio of IC50 for HAF cells to IC50 for human DU145 cells. The test is classed as functional.
Another test relates to HCT-116. Briefly: Selectivity index, ratio of IC50 for HAF cells to IC50 for human HCT116 cells. Format: functional.
A short description of test [11]: Selectivity index, ratio of IC50 for HAF cells to IC50 for human HT-29 cells. Format: functional.
The subject of the next test is HL-60. Put plainly: Selectivity index, ratio of IC50 for HAF cells to IC50 for human HL60 cells. Format: functional.

This is an account of results in ChEMBL document CHEMBL3856189, “Synthesis of novel diterpenoid analogs with in-vivo antitumor activity” (Eur J Med Chem, 2016).

pIC50: −log10 of the molar value.

For orientation: pIC50 means the IC50 on a negative log10 scale, so that one unit is a factor of ten. The low end stands for a large IC50, the high end for a small IC50. For the molecule `COc1cc2c(cc1C(=O)Nc1ccccc1F)CC[C@H]1C(C)(C)[C@@H](O)CC[C@]21C`, the pIC50 in test [1], in test [2] and in [3] was less than 4.60 each time.
On to `COc1cc2c(cc1C(=O)Nc1cccc(Cl)c1)CC[C@H]1C(C)(C)[C@@H](O)CC[C@]21C`, for which the pIC50 in test [1] was 6.00; in [2], 5.65; in [3], 6.59.
The like results for `COc1ccccc1NC(=O)c1cc2c(cc1OC)[C@@]1(C)CC[C@H](O)C(C)(C)[C@@H]1CC2` were, in that order, 6.70, 5.71 and 7.52.
Consider `COc1cc2c(cc1C(=O)Nc1ccc(F)cc1)CC[C@H]1C(C)(C)[C@@H](O)CC[C@]21C`, for which the pIC50 was 5.62 in test [1], 6.09 in [2] and 7.40 in [3].
For the molecule `CC1(C)[C@@H](O)CC[C@]2(C)c3cc(O)c(C(=O)Nc4ccc(F)cc4)cc3CC[C@@H]12`, the pIC50 is 5.03 in [1], 5.22 in test [2] and 5.59 in test [3].
On to `COc1cc2c(cc1C(=O)N(C)C)CC[C@H]1C(C)(C)[C@@H](O)CC[C@]21C`, for which the pIC50 in test [1], in test [2] and in [3] was less than 4.60 in each case.
As for `COc1cc2c(cc1C(=O)Nc1ccccc1C)CC[C@H]1C(C)(C)[C@@H](O)CC[C@]21C`, the pIC50 was 5.64 in test [1], 5.45 in test [2] and 6.29 in test [3].
For `CCNC(=O)c1cc2c(cc1OC)[C@@]1(C)CC[C@H](O)C(C)(C)[C@@H]1CC2`, the negative logarithm of the IC50 (pIC50) in [1] is 5.12; in test [2] it was less than 4.60; in test [3] it was less than 4.60.
`COc1cc2c(cc1C(=O)N(C)c1ccc(F)cc1)CC[C@H]1C(C)(C)[C@@H](O)CC[C@]21C`: the pIC50 in [1], in test [2] and in test [3] was less than 4.60 in each case.
For the molecule `COc1ccc(NC(=O)c2cc3c(cc2OC)[C@@]2(C)CC[C@H](O)C(C)(C)[C@@H]2CC3)cc1`, the pIC50 in test [1] is 6.39; in test [2], 6.55; in test [3], 7.52; in [4] it was 6.30; in test [5] it was 6.27; in test [6], 6.29. For the same molecule, the pIC50 is 6.28 in test [7], 6.39 in test [8] and 5.40 in test [9]. The “Ratio IC50” value (in [10]; in the test with MCF7; with T47D; in the test with PC-3; in the test with DU-145; with HCT-116) was 10 in each case. Also, the “Ratio IC50” value (in [11]; with HL-60) was 10 throughout.
Regarding `COc1cc2c(cc1C(=O)Nc1ccc(O)cc1)CC[C@H]1C(C)(C)[C@@H](O)CC[C@]21C`, the figures for the pIC50 in test [1], in [2] and in [3] were 5.72, 5.51 and 7.15, respectively.
For the molecule `COc1cc2c(cc1C(=O)Nc1ccccc1Cl)CC[C@H]1C(C)(C)[C@@H](O)CC[C@]21C`, the pIC50 is 5.43 in test [1], 5.18 in [2] and 6.09 in [3].
On to `COc1cc2c(cc1C(=O)Nc1ccc(C)cc1)CC[C@H]1C(C)(C)[C@@H](O)CC[C@]21C`, for which the pIC50 in test [1] is 5.91; in test [2] it was 6.66; in test [3], 6.64; in test [4] it was 5.83; in test [5], 5.68; in [6] it was 6.03. In addition, the pIC50 in [7] was 6.55; in [8], 5.45; in test [9], 5.41. Further, the “Ratio IC50” value (in test [10]; in the test on MCF7; in the test on T47D; in the test on PC-3; with DU-145; in the test on HCT-116) was 3.1 throughout. For the same molecule, the “Ratio IC50” value (in [11]; in the test with HL-60) was 3.1 in each case.
Take `COc1ccc(N(C)C(=O)c2cc3c(cc2OC)[C@@]2(C)CC[C@H](O)C(C)(C)[C@@H]2CC3)cc1`: the pIC50 in test [1] was less than 4.60; in test [2], less than 4.60; in test [3], 4.89.
Regarding `COc1ccc(OC(=O)c2cc3c(cc2OC)[C@@]2(C)CC[C@H](O)C(C)(C)[C@@H]2CC3)cc1`, the values for the pIC50 in [1], in test [2] and in [3] were 4.84, less than 4.60 and 5.27, respectively.
`COC(=O)c1ccc(NC(=O)c2cc3c(cc2OC)[C@@]2(C)CC[C@H](O)C(C)(C)[C@@H]2CC3)cc1`: the results for the pIC50 in test [1], in test [2] and in [3] were 5.17, 5.34 and 5.57, respectively.
On to `COc1cc2c(cc1C(=O)Nc1ccc(N)cc1)CC[C@H]1C(C)(C)[C@@H](O)CC[C@]21C`, for which the pIC50 is 5.51 in test [1], 5.28 in test [2] and 6.64 in [3].
The like results for `COC(=O)c1ccccc1NC(=O)c1cc2c(cc1OC)[C@@]1(C)CC[C@H](O)C(C)(C)[C@@H]1CC2` were, in that order, 5.10, 5.37 and 5.91.
The like results for `COc1cc2c(cc1C(=O)Nc1ccc(Cl)cc1)CC[C@H]1C(C)(C)[C@@H](O)CC[C@]21C` were, in that order, 5.99, 5.84 and 6.82.
`COc1cc2c(cc1C(=O)Oc1ccccc1)CC[C@H]1C(C)(C)[C@@H](O)CC[C@]21C`: the pIC50 in test [1], in test [2] and in [3] was less than 4.60 each time.
For `COc1cc2c(cc1C(=O)Nc1ccccc1N)CC[C@H]1C(C)(C)[C@@H](O)CC[C@]21C`, the results for the pIC50 in test [1], in test [2] and in [3] were 5.37, 4.95 and 6.26, respectively.
For the molecule `COc1cc2c(cc1C(=O)NC1CCCCC1)CC[C@H]1C(C)(C)[C@@H](O)CC[C@]21C`, the pIC50 in [1] was less than 4.60; in [2] it was less than 4.60; in test [3], 4.96.
Regarding `COc1cc2c(cc1C(=O)O)CC[C@H]1C(C)(C)C(O)CC[C@]21C` (single isomer, unassigned), the pIC50 in test [1], in [2] and in test [3] was less than 4.60 throughout.
